# Measurements taken from ChEMBL document CHEMBL1201861, “Genomics of Drug Sensitity in Cancer screening data, Wellcome Trust Sanger Institute”.
# Legend:
# [1] = tested on: KYSE-150 cell line; assay: cells; assay type: functional, cell-based, Homo sapiens; conditions: Homo sapiens, KYSE-150;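 also: growth inhibition of human KYSE-150 cells, read out with a cell viability assay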
# Description: SANGER: Inhibition of human KYSE-150 cell growth in a cell viability assay.
# [2] = tested on: LCLC-103H cell line; assay: cells; assay type: functional, cell-based, Homo sapiens; conditions: Homo sapiens, LCLC-103H
# Description: SANGER: Inhibition of human LCLC-103H cell growth in a cell viability assay.
# [3] = tested on: HMV-2 cell line; assay: cells; assay type: functional, cell-based, Homo sapiens; conditions: Homo sapiens, HMV-2;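 also: growth inhibition of HMV-II cells, read out with a cell viability assay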
# Description: SANGER: Inhibition of human HMV-II cell growth in a cell viability assay.
# [4] = tested on: KU812 cell line; assay: cells; assay type: functional, cell-based; conditions: Homo sapiens;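 also: growth inhibition of KU812 cells, read out with a cell viability assay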
# Description: SANGER: Inhibition of human KU812 cell growth in a cell viability assay.
# [5] = tested on: KYSE-520 cell line; assay: cells; assay type: functional, cell-based, Homo sapiens; conditions: Homo sapiens, KYSE-520;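 also: growth inhibition of human KYSE-520 cells, read out with a viability assay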
# Description: SANGER: Inhibition of human KYSE-520 cell growth in a cell viability assay.
# [6] = tested on: A253 cell line; assay: cells; assay type: functional, cell-based, Homo sapiens; conditions: Homo sapiens, A253;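 also: growth inhibition of A253 cells, read out with a cell viability assay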
# Description: SANGER: Inhibition of human A253 cell growth in a cell viability assay.
# [7] = tested on: BC1 cell line; assay: SANGER: Inhibition of human BC-1 cell growth in a cell viability assay.; assay type: functional, cell-based
# [8] = tested on: KYSE-70 cell line; assay: cells; assay type: functional, cell-based, Homo sapiens; conditions: Homo sapiens, KYSE-70;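 also: cell viability assay read-out, with IC50 expressing suppression of KYSE-70 cell growth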
# Description: SANGER: Inhibition of human KYSE-70 cell growth in a cell viability assay.
# [9] = tested on: LXF-289 cell line; assay: cells; assay type: functional, cell-based, Homo sapiens; conditions: Homo sapiens, LXF-289
# Description: SANGER: Inhibition of human LXF-289 cell growth in a cell viability assay.
# [10] = tested on: Caov-3 cell line; assay: cells; assay type: functional, cell-based; conditions: Homo sapiens;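 also: cell growth inhibition read out by a viability assay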
# Description: SANGER: Inhibition of human Caov-3 cell growth in a cell viability assay.
compound,measurement,setting,value
C[C@@]1(C(=O)Nc2ccc(F)nc2)CCCN1c1nc(Nc2cc(C3CC3)n[nH]2)c2cccn2n1 [BMS-754807],IC50,[1],2250 nM
same,IC50,[2],788 nM
same,IC50,[3],183 nM
same,IC50,[4],> 2560 nM
same,IC50,[5],> 2560 nM
same,IC50,[6],> 2560 nM
same,IC50,[7],587 nM
same,IC50,[8],> 2560 nM
same,IC50,[9],> 2560 nM
same,IC50,[10],> 2560 nM
